Reference: patent US12246076B2, “Radiolabeled compounds for in vivo imaging of gastrin-releasing peptide receptor (GRPR) and treatment of GRPR-related disorders” (PROVINCIAL HEALTH SERVICES AUTHORITY, priority 2022, dated 2025)

Legend:
[1] = In vivo plasma stability, radio-HPLC of plasma at 15 min p.i.; settings: healthy male NRG mice (n=3), 15 min post-injection
Method: In vivo plasma stability studies were conducted for ^68Ga-labeled tracers to evaluate metabolic stability at 15 min p.i. Approximately 5.56 to 15.3 MBq of ^68Ga-LW01025, ^68Ga-LW01029, ^68Ga-LW01107, ^68Ga-LW01108, ^68Ga-LW01110, ^68Ga-LW01102, or ^68Ga-LW01142 were injected via tail vein into three male NRG mice, respectively. At 15 min p.i., mice were sedated and euthanized and their blood and urine were collected. The plasma was extracted from whole blood with ACN, vortexed, centrifuged, and the supernatant collected. The plasma and urine were analyzed with radio-HPLC (C18 analytical column; flow rate: 2.0 mL/min). The HPLC condition was same as the HPLC condition for quality control.
The in vivo studies were similarly performed according to the procedure set forth in Example 1. […] The present invention has been described with regard to one or more embodiments.

[2] = Ex vivo biodistribution in PC-3 tumor-bearing mice; settings: male, mouse, iv, total radioactivity, 1 h post-injection, n = 4; for tissue uptake at 1 h: mice bearing PC-3 tumor xenografts; for tissue to tissue ratio at 1 h: uptake ratio
GRPR = biological target: T1, GRPR (Homo sapiens, UniProt P30550); settings: literature (Heimbrook 1991; Lin 1995); cited from earlier work
T1 construct: endogenous in cells; host or cells: PC-3 prostate cancer cells

[3] = NRG, PC-3 tumor, Biodistribution PC3 tumor Mean
[4] = NRG, adrenal, Biodistribution Adrenal Mean
[5] = NRG, bone, Biodistribution Bone Mean
[6] = NRG, brain, Biodistribution Brain Mean
[7] = NRG, fat, Biodistribution Fat Mean
[8] = NRG, heart, Biodistribution Heart Mean
[9] = NRG, kidneys, Biodistribution Kidneys Mean
[10] = NRG, large intestine, Biodistribution Large Intestine Mean
[11] = NRG, liver, Biodistribution Liver Mean
[12] = NRG, lungs, Biodistribution Lungs Mean
[13] = NRG, muscle, Biodistribution Muscle Mean
[14] = NRG, pancreas, Biodistribution Pancreas Mean
[15] = NRG, small intestine, Biodistribution Small Intestine Mean
[16] = NRG, spleen, Biodistribution Spleen Mean
[17] = NRG, stomach, Biodistribution Stomach Mean
[18] = NRG, testes, Biodistribution Testes Mean
[19] = NRG, whole blood, Biodistribution Blood Mean

T1 sequence (P30550 whole entry): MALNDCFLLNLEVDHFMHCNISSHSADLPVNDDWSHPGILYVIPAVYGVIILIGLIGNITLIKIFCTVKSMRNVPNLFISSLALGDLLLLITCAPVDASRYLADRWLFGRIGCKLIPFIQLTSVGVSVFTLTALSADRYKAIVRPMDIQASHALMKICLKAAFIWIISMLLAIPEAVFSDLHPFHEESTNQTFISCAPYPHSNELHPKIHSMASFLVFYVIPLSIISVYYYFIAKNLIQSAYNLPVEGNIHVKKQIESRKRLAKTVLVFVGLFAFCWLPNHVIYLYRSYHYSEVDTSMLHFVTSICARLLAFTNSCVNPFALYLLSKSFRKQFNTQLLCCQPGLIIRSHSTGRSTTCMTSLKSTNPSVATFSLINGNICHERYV

Molecule | remaining intact in plasma [1] | tissue uptake at 1 h [2, 3] | tissue uptake at 1 h [2, 4] | tissue uptake at 1 h [2, 5] | tissue uptake at 1 h [2, 6] | tissue uptake at 1 h [2, 7] | tissue uptake at 1 h [2, 8] | tissue uptake at 1 h [2, 9] | tissue uptake at 1 h [2, 10] | tissue uptake at 1 h [2, 11] | tissue uptake at 1 h [2, 12] | tissue uptake at 1 h [2, 13] | tissue uptake at 1 h [2, 14] | tissue uptake at 1 h [2, 15] | tissue uptake at 1 h [2, 16] | tissue uptake at 1 h [2, 17] | tissue uptake at 1 h [2, 18] | tissue uptake at 1 h [2, 19] | further results
CC(C)C[C@@H](CN1CSC[C@H]1C(N)=O)NC(=O)[C@H](Cc1c[nH]cn1)NC(=O)CNC(=O)[C@@H](NC(=O)[C@H](C)NC(=O)[C@H](Cc1c[nH]c2ccccc12)NC(=O)[C@H](CCC(N)=O)NC(=O)[C@@H](Cc1ccccc1)NC(=O)CN1CCC(NC(=O)CN2CCN(CC(=O)O)CCN(CC(=O)O)CCN(CC(=O)O)CC2)CC1)C(C)C [^68Ga-LW01045, metal not drawn] | 83.3±1.45% | 10.2 %ID/g | 0.57 %ID/g | 0.19 %ID/g | 0.05 %ID/g | 0.09 %ID/g | 0.27 %ID/g | 2.51 %ID/g | 0.37 %ID/g | 2.61 %ID/g | 0.75 %ID/g | 0.15 %ID/g | 2.81 %ID/g | 1.04 %ID/g | 0.47 %ID/g | 0.32 %ID/g | 0.19 %ID/g | 0.76 %ID/g | 
litorin |  |  |  |  |  |  |  |  |  |  |  |  |  |  |  |  |  |  | binding affinity to the GRPR (GRPR): very strong binding affinity
CC(C)C[C@@H](CN1CSC[C@H]1C(N)=O)NC(=O)[C@H](Cc1cnc[nH]1)NC(=O)CN(C)C(=O)[C@@H](NC(=O)[C@H](C)NC(=O)[C@H](Cc1c[nH]c2ccccc12)NC(=O)[C@H](CCC(N)=O)NC(=O)[C@@H](Cc1ccccc1)NC(=O)CN1CCC(NC(=O)CN2CCN(CC(=O)O)CCN(CC(=O)O)CCN(CC(=O)O)CC2)CC1)C(C)C [^68Ga-LW01090, metal not drawn] | 67.1±4.76% | 15.7 %ID/g | 0.58 %ID/g | 0.1 %ID/g | 0.03 %ID/g | 0.11 %ID/g | 0.24 %ID/g | 3.52 %ID/g | 0.41 %ID/g | 0.64 %ID/g | 0.55 %ID/g | 0.2 %ID/g | 1.98 %ID/g | 0.66 %ID/g | 0.3 %ID/g | 0.4 %ID/g | 0.23 %ID/g | 0.76 %ID/g | tissue to tissue ratio at 1 h ([2]; NOD.Cg-Rag1tm1Mom Il2rgtm1Wjl/SzJ (NRG), tumor and kidney, Tumor/kidney Mean): 4.48; tissue to tissue ratio at 1 h ([2]; NOD.Cg-Rag1tm1Mom Il2rgtm1Wjl/SzJ (NRG), tumor and pancreas, Tumor/pancreas Mean): 7.95; tissue to tissue ratio at 1 h ([2]; NRG, PC-3 tumor / bone, Tumor/bone Mean): 175; tissue to tissue ratio at 1 h ([2]; NRG, PC-3 tumor / muscle, Tumor/muscle Mean): 82.3
